# Assay results reported in article PMC10820264, “Combining Experimental and Computational Methods to Produce Conjugates of Anticholinesterase and Antioxidant Pharmacophores with Linker Chemistries Affecting Biological Activities Related to Treatment of Alzheimer’s Disease” (Molecules, 2024).
# Like-named read-outs stand apart in the source and are kept apart here. Marks after values point to notes of the source that are not given here.
# Tests used:
# [1] = ABTS radical cation scavenging assay; conditions: for ABTS•+-Scavenging Activity TEAC: Trolox equivalents
# Aβ42 = Aβ42 (Homo sapiens, UniProt P05067); assay: Inhibition of Aβ42 self-aggregation, thioflavin T fluorescence; assay type: biochemical; conditions: Aβ42 50 µM, compound 100 µM; read-out: Inhibition of Aβ42 Self-Aggregation
# Sequence of Aβ42 (P05067 672-713): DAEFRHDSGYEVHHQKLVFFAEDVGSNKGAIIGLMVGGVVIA
# Porcine liver CES [2] = assay: CES inhibition, spectrophotometric, 4-NPA substrate; assay type: biochemical
# Description: (§1) Human erythrocyte AChE and equine serum BChE were purchased from Milamed (Perm, Russia). Porcine liver CES, substrates, and reference compounds were from Sigma-Aldrich (St. Louis, MO, USA). The activity of enzymes was measured spectrophotometrically, as described in detail in [72] using ATCh iodide, BTCh iodide, and 4-NPA as substrates for AChE, BChE, and CES, respectively. Experimental conditions: K,Na—phosphate buffer (100 mM), 25 °C, pH 7.5 for AChE and BChE and pH 8.0 for CES assay. Measurements were carried out on a FLUOStar Optima microplate reader (BMG Labtech, Ortenberg, Germany).
# Test compounds were dissolved in DMSO; the final concentration of solvent in the incubation mixture was 2% (v/v). […]
# eqBChE [3] = biological target: T1, eqBChE (Equus caballus, UniProt P81908); assay: biochemical; assay type: biochemical; conditions: for Ki: read-out: eqBChE Ki (competitive inhibition constant)
# T1 sequence (P81908 whole entry): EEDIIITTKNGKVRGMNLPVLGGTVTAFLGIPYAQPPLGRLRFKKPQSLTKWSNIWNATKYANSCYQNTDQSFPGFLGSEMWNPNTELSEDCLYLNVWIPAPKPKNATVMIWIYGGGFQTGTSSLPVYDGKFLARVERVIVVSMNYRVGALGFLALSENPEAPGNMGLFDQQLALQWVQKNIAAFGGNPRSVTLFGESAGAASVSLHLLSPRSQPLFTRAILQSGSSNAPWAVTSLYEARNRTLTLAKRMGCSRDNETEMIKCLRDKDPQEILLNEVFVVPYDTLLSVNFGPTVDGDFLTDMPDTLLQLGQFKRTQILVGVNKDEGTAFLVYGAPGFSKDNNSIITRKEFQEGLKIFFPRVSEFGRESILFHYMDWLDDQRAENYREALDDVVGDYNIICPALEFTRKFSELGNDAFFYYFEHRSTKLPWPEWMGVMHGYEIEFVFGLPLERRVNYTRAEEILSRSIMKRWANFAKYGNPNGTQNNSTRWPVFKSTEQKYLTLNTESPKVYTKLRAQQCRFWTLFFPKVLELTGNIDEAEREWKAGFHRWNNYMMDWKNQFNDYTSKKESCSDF
# Description: (§2) A mechanism of AChE and BChE inhibition was assessed by a detailed analysis of enzyme kinetics with three increasing concentrations of inhibitor and six substrate concentrations, as described in detail in [72].
# AChE [4] = biological target: T2, AChE (Homo sapiens, UniProt P22303); assay: biochemical; assay type: biochemical; conditions: for Ki: read-out: AChE Ki (competitive inhibition constant)
# T2 sequence (P22303 other isoform, or with tags, fused parts or gaps): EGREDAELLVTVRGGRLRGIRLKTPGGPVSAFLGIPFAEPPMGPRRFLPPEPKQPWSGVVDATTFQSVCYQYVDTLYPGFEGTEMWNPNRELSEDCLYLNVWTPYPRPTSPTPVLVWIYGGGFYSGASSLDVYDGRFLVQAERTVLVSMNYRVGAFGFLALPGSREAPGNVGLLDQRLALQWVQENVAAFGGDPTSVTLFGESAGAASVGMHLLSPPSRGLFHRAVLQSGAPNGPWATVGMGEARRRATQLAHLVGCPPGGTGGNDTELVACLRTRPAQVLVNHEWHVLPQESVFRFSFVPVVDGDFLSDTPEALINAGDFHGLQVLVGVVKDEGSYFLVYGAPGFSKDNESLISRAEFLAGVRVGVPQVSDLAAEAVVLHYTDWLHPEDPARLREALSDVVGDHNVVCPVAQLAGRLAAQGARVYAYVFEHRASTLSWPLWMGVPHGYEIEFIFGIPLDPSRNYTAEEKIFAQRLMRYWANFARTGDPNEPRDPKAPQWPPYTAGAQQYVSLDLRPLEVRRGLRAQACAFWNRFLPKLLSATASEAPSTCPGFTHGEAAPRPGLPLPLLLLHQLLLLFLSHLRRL
# Description: as §2
# [5] = system: free radicals in mouse brain homogenate (TBHP-initiated); assay type: biochemical; conditions: read-out: Radical Scavenging Capacity, Luminol Chemiluminescence Assay IC50
# equine serum BChE [6] = biological target: T3, equine serum BChE (Equus caballus, UniProt P81908); assay: biochemical; assay type: biochemical; conditions: for BChE activity relative to tacrine (times more active): vs tacrine
# T3 sequence (P81908 whole entry): as the sequence (P81908 whole entry) above
# Description: as §1
# (§3) Test compounds were dissolved in DMSO; the final concentration of solvent in the incubation mixture was 2% (v/v).
# Human erythrocyte AChE [7] = biological target: T4, Human erythrocyte AChE (Homo sapiens, UniProt P22303); assay: biochemical; assay type: biochemical
# T4 sequence (P22303 other isoform, or with tags, fused parts or gaps): as the sequence (P22303 other isoform, or with tags, fused parts or gaps) above
# Description: as §1, §3
# [8] = system: spontaneous lipid peroxidation in mouse brain homogenate; assay type: biochemical; conditions: read-out: Inhibition of Spontaneous Lipid Peroxidation in Mouse Brain Homogenate, TBARS Assay IC50
# [9] = Ferric-reducing antioxidant power (FRAP) assay; conditions: Trolox equivalents
# [10] = biological target: T5, peripheral anionic site of Electrophorus electricus AChE (EeAChE) (Electrophorus electricus, UniProt O42275); assay type: binding
# T5 sequence (O42275 24-633): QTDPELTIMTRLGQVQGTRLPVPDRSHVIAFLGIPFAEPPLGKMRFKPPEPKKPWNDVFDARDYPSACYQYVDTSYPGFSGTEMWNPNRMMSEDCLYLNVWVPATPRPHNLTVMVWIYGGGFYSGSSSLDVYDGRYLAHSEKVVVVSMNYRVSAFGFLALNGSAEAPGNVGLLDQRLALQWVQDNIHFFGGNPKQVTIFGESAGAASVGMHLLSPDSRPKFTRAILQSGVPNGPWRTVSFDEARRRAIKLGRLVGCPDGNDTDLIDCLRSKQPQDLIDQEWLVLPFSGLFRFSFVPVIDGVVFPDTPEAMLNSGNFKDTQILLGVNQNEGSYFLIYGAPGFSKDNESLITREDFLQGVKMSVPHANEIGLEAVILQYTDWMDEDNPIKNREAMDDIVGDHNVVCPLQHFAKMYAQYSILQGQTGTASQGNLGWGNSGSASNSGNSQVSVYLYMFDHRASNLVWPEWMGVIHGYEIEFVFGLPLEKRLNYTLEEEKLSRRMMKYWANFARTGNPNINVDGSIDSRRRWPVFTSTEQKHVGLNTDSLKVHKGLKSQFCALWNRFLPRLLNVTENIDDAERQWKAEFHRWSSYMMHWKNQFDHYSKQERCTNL
# Porcine liver CES [11] = system: Porcine liver CES; design: method as in PMID 33322783; conditions: cited from earlier work
# eqBChE [12] = biological target: T1, eqBChE; design: method as in PMID 33322783; conditions: cited from earlier work
# equine serum BChE [13] = biological target: T3, equine serum BChE; design: method as in PMID 33322783; conditions: cited from earlier work
# [14] = biological target: T5, peripheral anionic site of Electrophorus electricus AChE (EeAChE); design: method as in PMID 33322783; conditions: compound 20 μM; cited from earlier work
# AChE [15] = biological target: T2, AChE; design: method as in PMID 33322783; conditions: cited from earlier work
# Human erythrocyte AChE [16] = biological target: T4, Human erythrocyte AChE; design: method as in PMID 33322783; conditions: cited from earlier work
# [17] = design: method as in PMID 33322783; conditions: Trolox equivalents; cited from earlier work
# [18] = design: method as in PMID 33322783; conditions: Trolox equivalents; cited from earlier work; remark: listed apart in the source
Structure (SMILES),IC50 [1] [µM],ABTS•+-Scavenging Activity TEAC [1],inhibition at 100 µM (Aβ42) [%],CES % inhibition at 20 μM (Porcine liver CES [2]) [%],eqBChE αKi (non-competitive inhibition constant) (eqBChE [3]) [nM],Ki (eqBChE [3]) [µM],AChE αKi (non-competitive inhibition constant) (AChE [4]) [nM],Ki (AChE [4]) [µM],IC50 [5] [µM],IC50 (equine serum BChE [6]) [µM],IC50 (Human erythrocyte AChE [7]) [µM],IC50 [8] [µM],Ferric-Reducing Antioxidant Power TE [9],Propidium Displacement [10] [%],CES % inhibition at 20 μM (Porcine liver CES [11]),IC50 (equine serum BChE [13]) [µM],Propidium Displacement [14],IC50 (Human erythrocyte AChE [16]) [µM],Ferric-Reducing Antioxidant Power TE [17],ABTS•+-Scavenging Activity TEAC [18],also measured
"CC(C)(C)c1cc(C=NCCCCCCCCNc2c3c(nc4ccccc24)CCCCC3)cc(C(C)(C)C)c1O [15d, 2,6-Di-tert-butyl-4-{[8-(7,8,9,10-tetrahydro-6H-cyclohepta[b]quinolin-11-ylamino)-octylimino]-methyl}-phenol]",19.6 ± 0.8,1.00 ± 0.03,63.5 ± 5,25.5 ± 1.1,5.68 ± 0.06,0.00491 ± 0.00042,31.4 ± 2.4,0.0199 ± 0.0008,3 ± 0.1,0.00624 ± 0.00054,0.026 ± 0.0024,29.1 ± 2.4,0.73 ± 0.02,14.9 ± 1.2,–,–,–,–,–,–,type of BChE inhibition (eqBChE [3]): mixed type; type of AChE inhibition (AChE [4]): mixed type; BChE activity relative to tacrine (times more active) (equine serum BChE [6]): 5 times
"CC(C)(C)c1cc(C=NCCCCCCCCNc2c3c(nc4ccccc24)CCCC3)cc(C(C)(C)C)c1O [14d, 2,6-Di-tert-butyl-4-{[8-(1,2,3,4-tetrahydro-acridin-9-ylamino)-octylimino]-methyl}-phenol]",18.2 ± 0.7,1.06 ± 0.03,70.4 ± 5.6,28.8 ± 2.0,–,–,–,–,1.9 ± 0.1,0.00939 ± 0.00042,0.0171 ± 0.0016,20.4 ± 2.3,0.70 ± 0.03,14.8 ± 1.0,–,–,–,–,–,–,AChE potency relative to compound 14a (times more potent) (Human erythrocyte AChE [7]; vs 14a): 350 times; AChE activity relative to tacrine (times more active) (Human erythrocyte AChE [7]; vs tacrine): ~ 40 times
CC(C)(C)c1cc(/C=N/CCNc2c3c(nc4ccccc24)CCCCC3)cc(C(C)(C)C)c1O [15a],18.8 ± 0.8,–,–,–,–,–,–,–,–,–,–,–,–,–,"30.1 ± 2.5% ^a,***",0.419 ± 0.04,16.3 ± 1.3 ^a %,4.03 ± 0.03,"0.52 ± 0.01 ^a,***",1.11 ± 0.04 ^a,"eqBChE αKi (non-competitive inhibition constant) (eqBChE [12]): 437 ± 10 ^b,*** nM; Ki (eqBChE [12]; read-out: eqBChE Ki (competitive inhibition constant)): 0.164 ± 0.005 µM; AChE αKi (non-competitive inhibition constant) (AChE [15]): 4300 ± 20 ^b,* nM; Ki (AChE [15]; read-out: AChE Ki (competitive inhibition constant)): 1.58 ± 0.1 µM"
"CC(C)(C)c1cc(CNCCCCCCCCNc2c3c(nc4ccccc24)CCCCC3)cc(C(C)(C)C)c1O [18d, 2,6-Di-tert-butyl-4-{[8-(7,8,9,10-tetrahydro-6H-cyclohepta[b]quinolin-11-ylamino)-octylamino]-methyl}-phenol]",15.8 ± 0.6,–,59.6 ± 4.7,13.9 ± 1.2,6.06 ± 0.41,0.00425 ± 0.00033,25.1 ± 0.2,0.013 ± 0.001,9.2 ± 0.6,0.00596 ± 0.00058,0.0308 ± 0.0002,20.2 ± 3.3,0.45 ± 0.01,12.3 ± 0.8,–,–,–,–,–,–,time to reach the activity level of Trolox in ABTS radical scavenging ([1]; compound at 20 μM (IC50 of Trolox)): less than 1 min; BChE activity relative to tacrine (times more active) (equine serum BChE [6]): 5 times
CC(C)(C)c1cc(/C=N/CCNc2c3c(nc4ccccc24)CCCC3)cc(C(C)(C)C)c1O [14a],17.8 ± 1.5,–,–,–,–,–,–,–,–,–,–,–,–,–,"28.6 ± 1.6% ^a,***",1.61 ± 0.04,"18.2 ± 1.6 ^a,*^,§ %",5.98 ± 0.131,"0.58 ± 0.03 ^a,***",1.13 ± 0.05 ^a,–
"CC(C)(C)c1cc(C=NCCCCCCNc2c3c(nc4ccccc24)CCCCC3)cc(C(C)(C)C)c1O [15c, 2,6-Di-tert-butyl-4-{[6-(7,8,9,10-tetrahydro-6H-cyclohepta[b]quinolin-11-ylamino)-hexylimino]-methyl}-phenol]",22.3 ± 1.1,0.90 ± 0.03,43.4 ± 3.9,25.4 ± 0.9,9.34 ± 0.62,0.00513 ± 0.0001,108 ± 3,0.0698 ± 0.005,2.3 ± 0.3,0.0106 ± 0.0002,0.151 ± 0.013,27.6 ± 1.7,0.52 ± 0.02,16.8 ± 1.2,–,–,–,–,–,–,–
"CC(C)(C)c1cc(CNCCCCCCNc2c3c(nc4ccccc24)CCCCC3)cc(C(C)(C)C)c1O [18c, 2,6-Di-tert-butyl-4-{[6-(7,8,9,10-tetrahydro-6H-cyclohepta[b]quinolin-11-ylamino)-hexylamino]-methyl}-phenol]",21.6 ± 1.1,1.00 ± 0.03,47.8 ± 3.8,16.8 ± 0.5,17.3 ± 0.2,0.00783 ± 0.00076,101 ± 5,0.0831 ± 0.0014,14.6 ± 0.8,0.0149 ± 0.0003,0.103 ± 0.004,24.6 ± 2.8,0.43 ± 0.02,12.5 ± 0.9,–,–,–,–,–,–,–
CC(C)(C)c1cc(CNCCNc2c3c(nc4ccccc24)CCC3)cc(C(C)(C)C)c1O [16a],14.6 ± 0.8,–,–,–,–,–,–,–,–,–,–,–,0.57 ± 0.02,–,"19.6 ± 1.3% ^a,***",–,16.4 ± 1.4 ^a %,–,–,"1.39 ± 0.05 ^a,***",–
CC(C)(C)c1cc(/C=N/CCNc2c3c(nc4ccccc24)CCC3)cc(C(C)(C)C)c1O [13a],22.3 ± 1.5,–,–,–,–,–,–,–,–,–,–,–,–,–,"26.1 ± 0.7% ^a,***",1.92 ± 0.11,"18.1 ± 1.6 ^a,*^,§ %",4.86 ± 0.01,"0.51 ± 0.03 ^a,***",0.92 ± 0.03 ^a,–
CC(C)(C)c1cc(CNCCNc2c3c(nc4ccccc24)CCCCC3)cc(C(C)(C)C)c1O [18a],15.3 ± 0.6,–,–,–,–,–,–,–,–,–,–,–,0.44 ± 0.06,–,"26.0 ± 3.9% ^a,*",–,13.6 ± 1.2 ^a %,–,–,"1.35 ± 0.06 ^a,***",–
